Reference: PubChem BioAssay AID1963860 (Molecular Pharmacology Branch, DTP, NCI, 2024)

Test system: CN0375-F725-PDC KRAS spheroid viability
Test: Anticancer human tumor CN0375-F725-PDC patient-derived colon carcinoma cell line growth inhibition [KRAS2]
Settings: spheroids with HUVEC and MSC; for viability, T/C: stronger effect = lower value
Outline: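 Combination screen of spheroid viability in tumor-cell co-cultures with endothelial (HUVEC) and mesenchymal stem cell stroma. Each agent was tested in half-log dilutions, topping at clinical Cmax or at 10 microM without a known Cmax.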

[1] = curve of first compound, second compound 0.1 µM
[2] = curve of first compound, second compound 0.316 µM
[3] = curve of first compound, second compound 1 µM
[4] = curve of first compound, second compound 3.16 µM
[5] = second compound 0.1 µM, first compound 0.0316 µM
[6] = second compound 0.1 µM, first compound 0.1 µM
[7] = second compound 0.1 µM, first compound 0.316 µM
[8] = second compound 0.1 µM, first compound 1 µM
[9] = second compound 0.1 µM, first compound 3.16 µM
[10] = second compound 0.1 µM, first compound 10 µM
[11] = second compound 0.316 µM, first compound 0.0316 µM
[12] = second compound 0.316 µM, first compound 0.1 µM
[13] = second compound 0.316 µM, first compound 0.316 µM
[14] = second compound 0.316 µM, first compound 1 µM
[15] = second compound 0.316 µM, first compound 3.16 µM
[16] = second compound 0.316 µM, first compound 10 µM
[17] = second compound 1 µM, first compound 0.0316 µM
[18] = second compound 1 µM, first compound 0.1 µM
[19] = second compound 1 µM, first compound 0.316 µM
[20] = second compound 1 µM, first compound 1 µM
[21] = second compound 1 µM, first compound 3.16 µM
[22] = second compound 1 µM, first compound 10 µM
[23] = second compound 3.16 µM, first compound 0.0316 µM
[24] = second compound 3.16 µM, first compound 0.1 µM
[25] = second compound 3.16 µM, first compound 0.316 µM
[26] = second compound 3.16 µM, first compound 1 µM
[27] = second compound 3.16 µM, first compound 3.16 µM
[28] = second compound 3.16 µM, first compound 10 µM
[29] = curve of first compound, second compound 10 µM
[30] = second compound 10 µM, first compound 0.0316 µM
[31] = second compound 10 µM, first compound 0.1 µM
[32] = second compound 10 µM, first compound 0.316 µM
[33] = second compound 10 µM, first compound 1 µM
[34] = second compound 10 µM, first compound 3.16 µM
[35] = second compound 10 µM, first compound 10 µM
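Also: spheroids exposed to agents for 7 days.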

Which results are given for `COc1cc(Nc2ncc3c(n2)-c2ccc(Cl)cc2C(c2c(F)cccc2OC)=NC3)ccc1C(=O)O` + C=CC(=O)N1CCN(c2nc(OCC3CCCN3C)nc3c2CCN(c2cccc4cccc(C)c24)C3)CC1CC#N?
IC50 (curve of first compound, second compound 0.0316 µM): > 10 µM; IC50 [1]: > 10 µM; IC50 [2]: > 10 µM; IC50 [3]: > 10 µM; IC50 [4]: < 0.0316 µM; viability, T/C (second compound 0.0316 µM, first compound 0.0316 µM): 96.6%; viability, T/C (second compound 0.0316 µM, first compound 0.1 µM): 108%; viability, T/C (second compound 0.0316 µM, first compound 0.316 µM): 91.8%; viability, T/C (second compound 0.0316 µM, first compound 1 µM): 95%; viability, T/C (second compound 0.0316 µM, first compound 3.16 µM): 93.9%; viability, T/C (second compound 0.0316 µM, first compound 10 µM): 74.9%; viability, T/C [5]: 109%; viability, T/C [6]: 105%; viability, T/C [7]: 91.3%; viability, T/C [8]: 92.5%; viability, T/C [9]: 95.9%; viability, T/C [10]: 79.3%; viability, T/C [11]: 103%; viability, T/C [12]: 101%; viability, T/C [13]: 94.8%; viability, T/C [14]: 91.8%; viability, T/C [15]: 88%; viability, T/C [16]: 75.7%; viability, T/C [17]: 88.3%; viability, T/C [18]: 90.8%; viability, T/C [19]: 82.9%; viability, T/C [20]: 83.2%; viability, T/C [21]: 83.9%; viability, T/C [22]: 73.8%; viability, T/C [23]: 16.5%; viability, T/C [24]: 23%; viability, T/C [25]: 14%; viability, T/C [26]: 44.8%; viability, T/C [27]: 42.3%; viability, T/C [28]: 22.3%

With `COc1cc2nccc(Oc3ccc(NC(=O)C4(C(=O)Nc5ccc(F)cc5)CC4)cc3)c2cc1OC` + CNCc1ccccc1-c1csc(C(C)Nc2nc(C)nc3cc(OC)c(OC)cc23)c1 as the compound, how does the IC50 [1] read?
The IC50 was 3.04 µM.

What about the IC50 [2] of the same compound?
The IC50 was 1.23 µM.

And the IC50 [3]?
Its IC50 is less than 0.0316 µM.

What about the IC50 [4] of the same compound?
Its IC50 is less than 0.0316 µM.

What about the IC50 [29] of the same compound?
Its IC50 is less than 0.0316 µM.

And the viability, T/C [5]?
Its viability, T/C is 98.2%.

What about the viability, T/C [6] of the same compound?
The viability, T/C was 94.4%.

And the viability, T/C [7]?
Its viability, T/C is 85.6%.

And the viability, T/C [8]?
The viability, T/C was 76.3%.

And the viability, T/C [9]?
Its viability, T/C is 44.4%.

What about the viability, T/C [10] of the same compound?
The viability, T/C was 53.7%.

And the viability, T/C [11]?
Its viability, T/C is 93%.

And the viability, T/C [12]?
Its viability, T/C is 97.6%.

And the viability, T/C [13]?
Its viability, T/C is 72.7%.

And the viability, T/C [14]?
The viability, T/C was 60.5%.

What about the viability, T/C [15] of the same compound?
Its viability, T/C is 23%.

And the viability, T/C [16]?
The viability, T/C was 11.3%.

And the viability, T/C [17]?
Its viability, T/C is 45.5%.

And the viability, T/C [18]?
Its viability, T/C is 42.6%.

And the viability, T/C [19]?
The viability, T/C was 19.5%.

And the viability, T/C [20]?
Its viability, T/C is 20.6%.

What about the viability, T/C [21] of the same compound?
Its viability, T/C is 2.02%.

And the viability, T/C [22]?
The viability, T/C was 1.05%.

And the viability, T/C [23]?
Its viability, T/C is 0.22%.

What about the viability, T/C [24] of the same compound?
The viability, T/C was 0.26%.

And the viability, T/C [25]?
Its viability, T/C is 0.27%.

What about the viability, T/C [26] of the same compound?
Its viability, T/C is 0.15%.

What about the viability, T/C [27] of the same compound?
The viability, T/C was 0.15%.

What about the viability, T/C [28] of the same compound?
Its viability, T/C is 0.11%.

And the viability, T/C [30]?
Its viability, T/C is 0.14%.

What about the viability, T/C [31] of the same compound?
Its viability, T/C is 0.13%.

And the viability, T/C [32]?
The viability, T/C was 0.14%.

What about the viability, T/C [33] of the same compound?
Its viability, T/C is 0.12%.

What about the viability, T/C [34] of the same compound?
The viability, T/C was 0.1%.

And the viability, T/C [35]?
Its viability, T/C is 0.16%.

Which IC50 [1] does the source give for `CC(C)n1nc(-c2ccc3oc(N)nc3c2)c2c(N)ncnc21` + COc1cc2nc(C)nc(NC(C)c3cc(N)cc(C(F)(F)F)c3)c2cc1OC1CCOC1 here?
The IC50 was 0.0591 µM.

What about the IC50 [2] of the same compound?
Its IC50 is 0.049 µM.

What about the IC50 [3] of the same compound?
The IC50 was 0.0365 µM.

What about the IC50 [4] of the same compound?
The IC50 was 0.0259 µM.

What about the IC50 [29] of the same compound?
Its IC50 is less than 0.000316 µM.

And the viability, T/C (second compound 0.1 µM, first compound 0.000316 µM)?
The viability, T/C was 101%.

And the viability, T/C (second compound 0.1 µM, first compound 0.001 µM)?
Its viability, T/C is 93.6%.

What about the viability, T/C (second compound 0.1 µM, first compound 0.00316 µM) of the same compound?
Its viability, T/C is 78%.

And the viability, T/C (second compound 0.1 µM, first compound 0.01 µM)?
The viability, T/C was 70.4%.

And the viability, T/C [5]?
The viability, T/C was 54.5%.

What about the viability, T/C [6] of the same compound?
Its viability, T/C is 45.5%.

What about the viability, T/C (second compound 0.316 µM, first compound 0.000316 µM) of the same compound?
Its viability, T/C is 95.1%.

And the viability, T/C (second compound 0.316 µM, first compound 0.001 µM)?
Its viability, T/C is 89.7%.

What about the viability, T/C (second compound 0.316 µM, first compound 0.00316 µM) of the same compound?
The viability, T/C was 77.6%.

What about the viability, T/C (second compound 0.316 µM, first compound 0.01 µM) of the same compound?
Its viability, T/C is 66%.

And the viability, T/C [11]?
Its viability, T/C is 54.2%.

And the viability, T/C [12]?
The viability, T/C was 43.7%.

And the viability, T/C (second compound 1 µM, first compound 0.000316 µM)?
The viability, T/C was 90.5%.

What about the viability, T/C (second compound 1 µM, first compound 0.001 µM) of the same compound?
The viability, T/C was 88.6%.

What about the viability, T/C (second compound 1 µM, first compound 0.00316 µM) of the same compound?
Its viability, T/C is 76%.

And the viability, T/C (second compound 1 µM, first compound 0.01 µM)?
The viability, T/C was 66.4%.

And the viability, T/C [17]?
The viability, T/C was 50.2%.

What about the viability, T/C [18] of the same compound?
Its viability, T/C is 42.1%.

And the viability, T/C (second compound 3.16 µM, first compound 0.000316 µM)?
Its viability, T/C is 85.2%.

What about the viability, T/C (second compound 3.16 µM, first compound 0.001 µM) of the same compound?
The viability, T/C was 80.8%.

And the viability, T/C (second compound 3.16 µM, first compound 0.00316 µM)?
The viability, T/C was 72.9%.

What about the viability, T/C (second compound 3.16 µM, first compound 0.01 µM) of the same compound?
The viability, T/C was 59%.

And the viability, T/C [23]?
The viability, T/C was 48.5%.

And the viability, T/C [24]?
Its viability, T/C is 40.8%.

What about the viability, T/C (second compound 10 µM, first compound 0.000316 µM) of the same compound?
The viability, T/C was 13.7%.

What about the viability, T/C (second compound 10 µM, first compound 0.001 µM) of the same compound?
Its viability, T/C is 14.8%.

What about the viability, T/C (second compound 10 µM, first compound 0.00316 µM) of the same compound?
The viability, T/C was 25.4%.

What about the viability, T/C (second compound 10 µM, first compound 0.01 µM) of the same compound?
The viability, T/C was 22%.

And the viability, T/C [30]?
The viability, T/C was 18.1%.

What about the viability, T/C [31] of the same compound?
The viability, T/C was 13.7%.

What does the source list for `CC(C)NCC(C(=O)N1CCN(c2ncnc3c2C(C)CC3O)CC1)c1ccc(Cl)cc1` (stereo unspecified) + CC1OCC2(CCN(c3cnc(Sc4ccnc(N)c4Cl)c(N)n3)CC2)C1N?
IC50 [1]: > 10 µM; IC50 [2]: > 10 µM; IC50 [3]: > 10 µM; IC50 [4]: > 10 µM; IC50 [29]: 5.95 µM; viability, T/C [5]: 100%; viability, T/C [6]: 95.9%; viability, T/C [7]: 94.4%; viability, T/C [8]: 88.7%; viability, T/C [9]: 87.7%; viability, T/C [10]: 71.7%; viability, T/C [11]: 93.6%; viability, T/C [12]: 93.5%; viability, T/C [13]: 89.9%; viability, T/C [14]: 82%; viability, T/C [15]: 81.6%; viability, T/C [16]: 70.8%; viability, T/C [17]: 90.5%; viability, T/C [18]: 88.7%; viability, T/C [19]: 84.3%; viability, T/C [20]: 74.8%; viability, T/C [21]: 75.9%; viability, T/C [22]: 66.2%; viability, T/C [23]: 87.4%; viability, T/C [24]: 83.9%; viability, T/C [25]: 76.5%; viability, T/C [26]: 70.3%; viability, T/C [27]: 63.2%; viability, T/C [28]: 56.5%; viability, T/C [30]: 71.3%; viability, T/C [31]: 68.3%; viability, T/C [32]: 62.3%; viability, T/C [33]: 54.9%; viability, T/C [34]: 56.4%; viability, T/C [35]: 46.3%

What does the source list for `C=CC(=O)N1CCN(c2nc(OCC3CCCN3C)nc3c2CCN(c2cccc4cccc(C)c24)C3)CC1CC#N` (stereo unspecified)?
viability, T/C (compound 0.0316 µM): 100% [middle of 17 runs]; viability, T/C (compound 0.1 µM): 100% [middle of 17 runs]; viability, T/C (compound 0.316 µM): 98.1% [middle of 17 runs]; viability, T/C (compound 1 µM): 92.7% [middle of 17 runs]; IC50 (compound alone, run of 08/26/2021): 1.82 µM [middle of 5 runs]; IC50 (compound alone, run of 09/02/2021): 2.09 µM [middle of 5 runs]
